Like-named read-outs stand apart in the source and are kept apart here.

The results in this text go back to US12268666B2, “Spray-dried dispersions, formulations, and polymorphs of (S)-5-amino-3-(4-((5-fluoro-2-methoxybenzamido)methyl)phenyl)-1-(1,1,1-trifluoropropan-2-yl)-1H-pyrazole-4-carboxamide” (Loxo Oncology, Inc., priority 2018, dated 2025).

Data set [1] can be described thus: Dog pharmacokinetics, crystalline compound in suspension (Example 15 Part A). The class given is in vivo, beagle dogs. As to conditions: for bioavailability / AUC(0-t) / Cmax: both sexes, beagle, dog, plasma, 30 mg/kg; for bioavailability: oral, AUC0-t oral vs AUC0-inf of 2-mg/kg IV dose, read-out: F (bioavailability); for AUC(0-t) / Cmax: po, suspension in 0.5% HPMC. The protocol:
Crystalline compound of Formula I is prepared as a suspension in 0.5% hydroxypropyl methylcellulose (IPMC) at 6 mg/mL for administration of 30 mg/kg; no correction factor is used for dose formulation. Three male and five female beagle dogs are administered a single PO gavage dose of 30 mg/kg compound of Formula I formulated as a suspension in 0.5% HPMC. All animals are administered the suspension of the crystalline compound of Formula I in fed and fasted states, following a 7-day washout period between dosing periods/feeding conditions. For both feeding conditions, access to food is removed at least 12 hours prior to dose administration. In Crossover #1, 6 dogs are fed a mix of canned and dry food approximately 45 minutes prior to dose administration (Group 1), and 2 dogs are administered the compound of Formula I in a fasted state and fed 4 hours after dosing (Group 2). In Crossover #2, the 2 dogs that are administered the compound of Formula I in the fasted state in Crossover #1 are fed a mix of canned and dry food approximately 45 minutes prior to dose administration (Group 3), and 5 of the dogs that are administered the compound of Formula I in the fed state in Crossover #1 are administered the compound of Formula I in a fasted state and fed 4 hours after dosing (Group 4) (Table 26). The same 3 males and 3 females are assigned to Groups 1 and 4 (with the exception of one female, which is assigned to Group 1 but is not included in Group 4), and the same 2 females are assigned to Groups 2 and 3.
Blood samples are collected via the jugular vein following PO doses at 0 (pre-dose), 0.5, 1, 2, 4, 8 24 and 48 hours into EDTAblood collection tubes. Samples are centrifuged at 3500 rpm for 10 minutes at 4-8° C. and the plasma fraction is stored frozen at −70° C. prior to bioanalytical analysis. Concentrations of the compound of Formula I in dog plasma are determined by LC-MS/MS following protein precipitation with acetonitrile. Non-compartmental pharmacokinetic parameters of the compound of Formula I are calculated by conventional methods using individual plasma concentration profiles over time and Microsoft Excel.

Data set [2] is described as follows: In vivo dog bioavailability and pharmacokinetic study, reference vs SDD. The conditions noted are these: beagle, plasma, po, 30 mg/kg, dogs, suspension in 0.5% HPMC in water, mean ± SD. As to the method: Dogs are fasted overnight prior to dosing (fasted) or fed canned food 45 min prior to dosing (fed). Samples for pharmacokinetic (PK) analysis are collected at 30 min, 1, 2, 4, 8, 24, and 48 hours post-dose. Blood samples are processed to plasma and stored frozen at −70° C. until analysis of the compound of Formula I concentrations. The concentration of the compound of Formula I in the plasma is determined by reverse phase HPLC with mass spectrometry detection. The compound of Formula I area under the curve is calculated by the trapezoidal method over the time course of the study. ANOVA with Dunett correction for multiple comparisons is used to determine statistical significant of differences from the reference formulation. The values of AUC and Cmax are reported as averages±standard deviation for each group of dogs in Table 24.

The mark [3] stands for this setting: beagle dogs, single PO 30 mg/kg.
Setting [4] is: beagle dogs, fasted, single PO 30 mg/kg.
[5] abbreviates: beagle dogs, fed, single PO 30 mg/kg.

For the compound `COc1ccc(F)cc1C(=O)NCc1ccc(-c2nn([C@@H](C)C(F)(F)F)c(N)c2C(N)=O)cc1` [Crystalline compound of Formula I, (S)-5-amino-3-(4-((5-fluoro-2-methoxybenzamido)methyl)phenyl)-1-(1,1,1-trifluoropropan-2-yl)-1H-pyrazole-4-carboxamide], in data set [1] (setting [3]), the “AUC0-t fold change (fed/fasted ratio)” value is recorded as 7.5 ± 3.3 and the “Cmax fold change (fed/fasted ratio)” value stood at 4.8 ± 2.1. Moreover, the bioavailability in data set [1] (fasted) amounted to 5.09%. Moreover, the bioavailability in data set [1] (fed) came out at 29.7%. Also, in data set [1] (setting [4]), the AUC(0-t) was determined as 8180 ± 3680 ng·h/mL and the concentration peaked (Cmax) at 597 ± 197 ng/mL. Besides, in data set [1] (setting [5]), the area under the curve AUC(0-t) is 47800 ± 21300 ng·h/mL and the Cmax was determined as 2370 ± 679 ng/mL.

With `COc1ccc(F)cc1C(=O)NCc1ccc(-c2nn([C@@H](C)C(F)(F)F)c(N)c2C(N)=O)cc1` [Reference, (S)-5-amino-3-(4-((5-fluoro-2-methoxybenzamido)methyl)phenyl)-1-(1,1,1-trifluoropropan-2-yl)-1H-pyrazole-4-carboxamide], the AUC in data set [2] (fasted) amounted to 11300 ng·h/mL; in data set [2] (fed), 47800 ng·h/mL. Besides, the Cmax in data set [2] (fasted) is 597 ng/mL; in data set [2] (fed) it was 2370 ng/mL.

Usually bioavailability stands for the share of a dose that reaches the circulation, judged against a reference dose that is usually intravenous. Broadly, the AUC(0-t) is the area under the concentration-time curve up to a stated or last time point. Read a high AUC(0-t) as more exposure. As a reminder, the Cmax is the peak of the concentration-time curve. The AUC is concentration integrated over time. The low end stands for less exposure, the high end for more exposure.
